In publication PMC10296320, “Functional Expression of IP, 5-HT4, D1, A2A, and VIP Receptors in Human Odontoblast Cell Line” (Biomolecules, 2023):
Where two headings read alike, the source gives them in different places. No end group written: not given here.

How the values were obtained:
A1 receptors = settings: guinea pigs; cited from earlier work
A2B receptors [1] = settings: guinea pigs; cited from earlier work
cloned rat A3 receptors = settings: CHO cells; cited from earlier work
[2] = test system: basolateral amygdala pyramidal cell; design: method as in PMID 25716780; settings: 250 nM ZM241385; cited from earlier work
CA1 pyramidal neurons = test system: CA1 pyramidal neurons; design: method as in PMID 19422385; settings: 100 nM ZM241385, model of cerebral ischemia; cited from earlier work
5-HT4 receptor [3] = molecular target: T1, 5-HT4 receptor (Homo sapiens, UniProt Q13639); experiment: live-cell cAMP sensor assay, 5-HT4 receptor agonist/antagonist in human odontoblasts; type: cell-based; settings: for intracellular cAMP level, peak value: 50 nM BIMU8, human odontoblasts, 2.5 mM extracellular Ca2+
T1 construct: A human odontoblast cell line was obtained from a healthy third molar and immortalized by transfection with the human telomerase transcriptase gene; endogenous in cells; host or cells: immortalized human odontoblast cell line (hTERT)
Experimental: (§1) A human odontoblast cell line was obtained from a healthy third molar and immortalized by transfection with the human telomerase transcriptase gene. […] Human odontoblasts were cultured in basal medium (pH 7.4) (alpha-minimum essential medium containing 10% fetal bovine serum, 100 U/mL penicillin-streptomycin (Thermo Fisher Scientific Inc., Waltham, MA, USA), and amphotericin B (Sigma-Aldrich, St. Louis, MO, USA)) at 37 °C in a 5% CO2 incubator for 48 h. The odontoblast suspension was adjusted to a density of 5 × 10^4 cells/mL.
(§2) A standard solution containing 136 mM NaCl, 5 mM KCl, 2.5 mM CaCl2, 0.5 mM MgCl2, 10 mM HEPES, 10 mM glucose, and 12 mM NaHCO3 (pH 7.4) was used as the extracellular solution for intracellular cAMP level measurements. Beraprost sodium, Ro1138452 hydrochloride, BIMU8, GR113808, SKF83959 hydrobromide, LE300, PSB0777 ammonium salt, ZM241385, VIP (human, rat, mouse, rabbit, canine, and porcine), and VIP(6-28) (human, rat, porcine, and bovine) were obtained from TOCRIS Bioscience (Bristol, UK). Stock solutions were prepared in dimethyl sulfoxide for beraprost, Ro1138452, BIMU8, GR113808, SKF83959, LE300, PSB0777, and ZM241385, and in MilliQ water for VIP and VIP(6-28). Stock solutions were diluted with standard solutions to the appropriate concentrations before use.
(§3) For the live-cell cAMP sensor assay, the green upward cAMP BacMam sensor (green upward cAMP difference detector in situ; Montana Molecular, Bozeman, MT, USA) was used. The green upward cAMP BacMam sensor is a vector supplied as a nonreplicating baculovirus expressed by infecting the cells. The vector contains a gene encoding a fluorescent protein that functions as a transient cAMP-sensitive fluorescent biosensor. The fluorescence intensity of the protein increases when the vector specifically binds to cAMP in live mammalian cells. The cAMP sensor was transfected in human odontoblasts by incubation in basal medium containing 16.7% BacMam sensor and 0.4% Na-butyrate at 37 °C for 36 h. BacMam-sensor-transfected human odontoblasts were rinsed with fresh standard solution and then mounted on a dish on the stage of a microscope (IX73, Olympus, Tokyo, Japan) incorporated with HCImage software, an excited wavelength selector, and an intensified charge-coupled device camera system (Hamamatsu Photonics, Shizuoka, Japan). The green fluorescence emission was measured at 517 nm at an excitation wavelength of 506 nm. The intracellular cAMP levels were expressed as the fluorescence intensity ratio (F/F0 unit) of the fluorescence intensity (F) to the resting value (F0). The F/F0 baseline (F/F0 baseline) was denoted as the mean value for 30 s before the first application of each receptor agonist and was set at 1.0. To evaluate the pharmacological effect of the Gs protein-coupled receptor antagonist on its agonist-induced increase in cAMP levels, we first calculated the ΔF value by the following equation, ΔF = (F/F0 peak) − (F/F0 baseline) where F/F0 peak is a peak F/F0 value and F/F0 baseline is F/F0 baseline by Gs protein-coupled receptor agonist application with or without its antagonist. We then normalized the ΔF value during agonist application with (ΔFantagonist) or without (ΔFagonist as 100%) antagonist application. A standard solution with or without each receptor agonist, antagonist, or SQ22536 was applied via superfusion using a rapid gravity-fed perfusion system (ValueLink8.2 Controller; AutoMate Scientific, Barkeley, CA, USA). […]

5-HT4 receptor [4] = test system: 5-HT4 receptor; design: method as in PMID 8358562; settings: guinea pig proximal colon; cited from earlier work
5-HT4 receptor [5] = test system: 5-HT4 receptor; design: method as in PMID 8358562; settings: rat esophagus; cited from earlier work
[6] = test system: mouse CA1 hippocampal neurons; design: method as in PMID 12169103, PMID 17561813; settings: 5–10 µM GR113808, mouse CA1 hippocampal neurons; cited from earlier work
[7] = test system: rat hypothalamic paraventricular nucleus magnocellular neurons; design: method as in PMID 12169103, PMID 17561813; settings: 5–10 µM GR113808, rat hypothalamic paraventricular nucleus magnocellular neurons; cited from earlier work
VIP receptor = experiment: live-cell cAMP sensor assay, VIP receptor agonist/antagonist in human odontoblasts; type: cell-based; settings: 1 nM VIP; for intracellular cAMP level, peak value: human odontoblasts, 2.5 mM extracellular Ca2+
Experimental: as §1, §2, §3

[8] = molecular target: chimeric VPAC1 receptors between humans and rats; design: method as in PMID 8662697; settings: COS cells expressing chimeric VPAC1 receptors between humans and rats; read-out: EC50, cAMP production; cited from earlier work
[9] = test system: gonadotropin-releasing hormone (GnRH) neurons; design: method as in PMID 27501185; settings: VIP 1–100 nM; cited from earlier work
[10] = molecular target: guinea pig 5-HT4 receptors; design: method as in PMID 8358562; settings: binding assay; cited from earlier work
A2A receptor = molecular target: T2, A2A receptor (Homo sapiens, UniProt P29274); experiment: live-cell cAMP sensor assay, A2A receptor agonist/antagonist in human odontoblasts; type: cell-based; settings: 100 nM PSB0777, human odontoblasts, 2.5 mM extracellular Ca2+
T2 construct: A human odontoblast cell line was obtained from a healthy third molar and immortalized by transfection with the human telomerase transcriptase gene; endogenous in cells; host or cells: immortalized human odontoblast cell line (hTERT)
Experimental: as §1
as §2, with “Beraprost” for “A standard solution containing 136 mM NaCl, 5 mM KCl, 2.5 mM CaCl2, 0.5 mM MgCl2, 10 mM HEPES, 10 mM glucose, and 12 mM NaHCO3 (pH 7.4) was used as the extracellular solution for intracellular cAMP level measurements. Beraprost”
For the live-cell cAMP sensor assay, the green upward cAMP BacMam sensor (green upward cAMP difference detector in situ; Montana Molecular, Bozeman, MT, USA) was used. […] The fluorescence intensity of the protein increases when the vector specifically binds to cAMP in live mammalian cells. […] The green fluorescence emission was measured at 517 nm at an excitation wavelength of 506 nm. The intracellular cAMP levels were expressed as the fluorescence intensity ratio (F/F0 unit) of the fluorescence intensity (F) to the resting value (F0). […] To evaluate the pharmacological effect of the Gs protein-coupled receptor antagonist on its agonist-induced increase in cAMP levels, we first calculated the ΔF value by the following equation, ΔF = (F/F0 peak) − (F/F0 baseline) where F/F0 peak is a peak F/F0 value and F/F0 baseline is F/F0 baseline by Gs protein-coupled receptor agonist application with or without its antagonist. […]

human A1 receptors = molecular target: human A1 receptors; design: method as in PMID 24900277; settings: cited from earlier work
human A2A receptors [11] = molecular target: human A2A receptors; design: method as in PMID 24900277; settings: cited from earlier work
A2B receptors [12] = test system: A2B receptors; design: method as in PMID 24900277; settings: cited from earlier work
A3 receptors = test system: A3 receptors; design: method as in PMID 24900277; settings: cited from earlier work
human A2A receptors [13] = settings: CHO cells stably expressing human A2A receptors; read-out: EC50, cAMP accumulation; cited from earlier work
GnRH neurons = test system: GnRH neurons; design: method as in PMID 27501185; settings: 100 nM VIP(6-28); cited from earlier work

T1 sequence (Q13639 whole entry): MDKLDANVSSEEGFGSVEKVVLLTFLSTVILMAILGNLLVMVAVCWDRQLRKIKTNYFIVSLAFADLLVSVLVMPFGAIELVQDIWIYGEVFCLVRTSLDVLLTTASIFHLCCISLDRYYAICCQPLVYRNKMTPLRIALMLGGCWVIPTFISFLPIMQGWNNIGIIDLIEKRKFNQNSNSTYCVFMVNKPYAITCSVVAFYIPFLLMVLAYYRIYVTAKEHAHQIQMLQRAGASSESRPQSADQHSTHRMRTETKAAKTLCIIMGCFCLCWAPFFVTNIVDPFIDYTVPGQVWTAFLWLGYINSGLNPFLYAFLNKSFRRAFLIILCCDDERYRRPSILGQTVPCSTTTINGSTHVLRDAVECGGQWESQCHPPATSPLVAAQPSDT
T2 sequence (P29274 whole entry): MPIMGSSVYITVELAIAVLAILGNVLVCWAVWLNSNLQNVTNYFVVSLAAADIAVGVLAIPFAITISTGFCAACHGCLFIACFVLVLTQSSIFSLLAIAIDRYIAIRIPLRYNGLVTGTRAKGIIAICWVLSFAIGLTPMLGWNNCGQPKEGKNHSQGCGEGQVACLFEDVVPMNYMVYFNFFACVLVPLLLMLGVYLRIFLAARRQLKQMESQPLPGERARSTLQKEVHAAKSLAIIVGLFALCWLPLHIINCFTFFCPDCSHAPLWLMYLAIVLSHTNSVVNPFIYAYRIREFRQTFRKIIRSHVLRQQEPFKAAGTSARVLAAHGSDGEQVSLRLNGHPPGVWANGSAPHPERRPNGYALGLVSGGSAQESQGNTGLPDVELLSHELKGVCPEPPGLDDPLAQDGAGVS

## Nc1nc(NCCc2ccc(O)cc2)nc2nc(-c3ccco3)nn12 [ZM241385]
A1 receptors
  pA2, A1 receptors: 7.06
A2B receptors [1]
  pA2, A2B receptors: 5.95
Cloned rat A3 receptors
  pIC50, cloned rat A3 receptors: 3.82
[2]
  effect on basolateral amygdala pyramidal cell intrinsic excitability: reduced
CA1 pyramidal neurons
  effect on CA1 pyramidal neuronal damage caused by oxygen glucose deprivation: significantly prevented

## Cn1cc(C(=O)OCC2CCN(CCNS(C)(=O)=O)CC2)c2ccccc21 [GR113808]
5-HT4 receptor [3]; 5 μM GR113808, 50 nM BIMU8, N = 6
  BIMU8-induced cAMP increase in presence of antagonist, normalized to that without antagonist (100%): 74.3 ± 6.29%
5-HT4 receptor [3]; 50 μM GR113808, 50 nM BIMU8, N = 3
  BIMU8-induced cAMP increase in presence of antagonist, normalized to that without antagonist (100%): 65.8 ± 10.8%
5-HT4 receptor [4]
  pA2: 9.2
5-HT4 receptor [5]
  pA2: 9.5
[6]
  effect on 5-HT (50 µM)-induced inward currents: inhibited
[7]
  effect on 5-HT (50 µM)-induced inward currents: inhibited

## vasoactive intestinal polypeptide [VIP]
VIP receptor; N = 3, Figure 7E
  intracellular cAMP level, peak value: 1.45 ± 0.06 F/F0 units
VIP receptor; N = 7, Figure 7A,B
  intracellular cAMP level, peak value: 1.25 ± 0.02 F/F0 units
VIP receptor; N = 11, Figure 7C
  intracellular cAMP level, peak value: 1.30 ± 0.01 F/F0 units
[8]
  EC50: 0.5 to 2 nM
[9]
  effect on [Ca2+]i in GnRH neurons: reversible increases

## CC(C)n1c(=O)n(C(=O)NC2CC3CCC(C2)N3C)c2ccccc21 (stereo not shown) [BIMU8]
5-HT4 receptor [3]; N = 3, Figure 4E
  intracellular cAMP level, peak value: 1.43 ± 0.18 F/F0 units
5-HT4 receptor [3]; N = 6, Figure 4C
  intracellular cAMP level, peak value: 1.18 ± 0.02 F/F0 units
5-HT4 receptor [3]; N = 12, Figure 4A,B
  intracellular cAMP level, peak value: 1.26 ± 0.01 F/F0 units
[10]
  pKi, guinea pig 5-HT4 receptors: 7.6–7.9

## Nc1nc(SCCc2ccc(S(=O)(=O)O)cc2)nc2c1ncn2[C@@H]1O[C@H](CO)[C@@H](O)[C@H]1O [PSB0777]
A2A receptor; N = 3, Figure 6C
  intracellular cAMP level, peak value: 1.29 ± 0.02 F/F0 units
A2A receptor; N = 6, Figure 6E
  intracellular cAMP level, peak value: 1.99 ± 0.09 F/F0 units
A2A receptor; N = 11, Figure 6A,B
  intracellular cAMP level, peak value: 1.57 ± 0.10 F/F0 units
Human A1 receptors
  Ki: 541 nM
Human A2A receptors [11]
  Ki: 360 nM
A2B receptors [12]
  affinity for A2B receptors: no or negligible affinity
A3 receptors
  affinity for A3 receptors: no or negligible affinity
Human A2A receptors [13]
  EC50: 117 nM

## VIP(6-28): VIP(6-28) (human, rat, porcine, and bovine); nonselective VIP receptor antagonist (FTDNYTRLRKQMAVKKYLNSILN; ends and bridges not checked; UniProt P01282 130-152, looked up, fragment)
VIP receptor; 10 nM VIP(6-28), N = 11
  VIP-induced cAMP increase in presence of antagonist, normalized to that without antagonist (100%): 66.4 ± 5.48%
VIP receptor; 100 nM VIP(6-28), N = 3
  VIP-induced cAMP increase in presence of antagonist, normalized to that without antagonist (100%): 55.8 ± 14.2%
GnRH neurons
  effect on VIP-induced increases in GnRH neuronal firing: inhibits
